{
  "source": "PubChem BioAssay AID2060885",
  "about": "(Molecular Pharmacology Branch, DTP, NCI, 2025)",
  "tested_on": "NCI-H23 complex spheroids with HUVEC/MSC, viability",
  "experiment": "Anticancer human tumor NCI-H23 cell line growth inhibition [RAS];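 note: spheroids exposed to compound for 7 days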;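 for viability, T/C: 100% = DMSO vehicle control viability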",
  "conditions": "for IC50: curve of first compound; for viability, T/C: stronger effect = lower value",
  "outline": "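Tumour cells grown as complex spheroids with HUVEC endothelial cells and mesenchymal stem cells, treated with RAS pathway inhibitor combinations. Each agent spans half-log steps from near clinical Cmax, or 10 microM where Cmax is unknown.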",
  "key": {"[1]": {"conditions": "second compound 0.00316 µM, first compound 0.00316 µM"}, "[2]": {"conditions": "second compound 0.00316 µM, first compound 0.01 µM"}, "[3]": {"conditions": "second compound 0.00316 µM, first compound 0.0316 µM"}, "[4]": {"conditions": "second compound 0.00316 µM, first compound 0.1 µM"}, "[5]": {"conditions": "second compound 0.00316 µM, first compound 0.316 µM"}, "[6]": {"conditions": "second compound 0.00316 µM, first compound 1 µM"}, "[7]": {"conditions": "second compound 0.01 µM, first compound 0.00316 µM"}, "[8]": {"conditions": "second compound 0.01 µM, first compound 0.01 µM"}, "[9]": {"conditions": "second compound 0.01 µM, first compound 0.0316 µM"}, "[10]": {"conditions": "second compound 0.01 µM, first compound 0.1 µM"}, "[11]": {"conditions": "second compound 0.01 µM, first compound 0.316 µM"}, "[12]": {"conditions": "second compound 0.01 µM, first compound 1 µM"}, "[13]": {"conditions": "second compound 0.0316 µM, first compound 0.00316 µM"}, "[14]": {"conditions": "second compound 0.0316 µM, first compound 0.01 µM"}, "[15]": {"conditions": "second compound 0.0316 µM, first compound 0.0316 µM"}, "[16]": {"conditions": "second compound 0.0316 µM, first compound 0.1 µM"}, "[17]": {"conditions": "second compound 0.0316 µM, first compound 0.316 µM"}, "[18]": {"conditions": "second compound 0.0316 µM, first compound 1 µM"}, "[19]": {"conditions": "second compound 0.1 µM, first compound 0.00316 µM"}, "[20]": {"conditions": "second compound 0.1 µM, first compound 0.01 µM"}, "[21]": {"conditions": "second compound 0.1 µM, first compound 0.0316 µM"}, "[22]": {"conditions": "second compound 0.1 µM, first compound 0.1 µM"}, "[23]": {"conditions": "second compound 0.1 µM, first compound 0.316 µM"}, "[24]": {"conditions": "second compound 0.1 µM, first compound 1 µM"}, "[25]": {"conditions": "second compound 0.316 µM, first compound 0.00316 µM"}, "[26]": {"conditions": "second compound 0.316 µM, first compound 0.01 µM"}, "[27]": {"conditions": "second compound 0.316 µM, first compound 0.0316 µM"}, "[28]": {"conditions": "second compound 0.316 µM, first compound 0.1 µM"}, "[29]": {"conditions": "second compound 0.316 µM, first compound 0.316 µM"}, "[30]": {"conditions": "second compound 0.316 µM, first compound 1 µM"}, "[31]": {"conditions": "second compound 1 µM, first compound 0.00316 µM"}, "[32]": {"conditions": "second compound 1 µM, first compound 0.01 µM"}, "[33]": {"conditions": "second compound 1 µM, first compound 0.0316 µM"}, "[34]": {"conditions": "second compound 1 µM, first compound 0.1 µM"}, "[35]": {"conditions": "second compound 1 µM, first compound 0.316 µM"}, "[36]": {"conditions": "second compound 1 µM, first compound 1 µM"}},
  "data": [
    {"smiles": "C=CC(=O)Nc1cc(Nc2nccc(-c3cn(C)c4ccccc34)n2)c(OC)cc1N(C)CCN(C)C", "note": "+ C=CC(=O)N1CCN(c2nc(OCC3CCCN3C)nc3c(F)c(-c4nc(N)cc(C)c4C(F)(F)F)c(Cl)cc23)C(C)C1", "values": [
      {"measurement": "IC50", "setting": "second compound 0.00316 µM", "result": 1000, "unit": "nM"},
      {"measurement": "IC50", "setting": "second compound 0.01 µM", "result": 7.6, "unit": "nM"},
      {"measurement": "IC50", "setting": "second compound 0.0316 µM", "result": 3.62, "unit": "nM"},
      {"measurement": "IC50", "setting": "second compound 0.1 µM", "result": "< 3.16", "unit": "nM"},
      {"measurement": "IC50", "setting": "second compound 0.316 µM", "result": "< 3.16", "unit": "nM"},
      {"measurement": "IC50", "setting": "second compound 1 µM", "result": "< 3.16", "unit": "nM"},
      {"measurement": "viability, T/C", "setting": "[1]", "result": 66.1, "unit": "%"},
      {"measurement": "viability, T/C", "setting": "[2]", "result": 83.2, "unit": "%"},
      {"measurement": "viability, T/C", "setting": "[3]", "result": 56.1, "unit": "%"},
      {"measurement": "viability, T/C", "setting": "[4]", "result": 53.5, "unit": "%"},
      {"measurement": "viability, T/C", "setting": "[5]", "result": 57.2, "unit": "%"},
      {"measurement": "viability, T/C", "setting": "[6]", "result": 49.6, "unit": "%"},
      {"measurement": "viability, T/C", "setting": "[7]", "result": 51.5, "unit": "%"},
      {"measurement": "viability, T/C", "setting": "[8]", "result": 52.9, "unit": "%"},
      {"measurement": "viability, T/C", "setting": "[9]", "result": 45.1, "unit": "%"},
      {"measurement": "viability, T/C", "setting": "[10]", "result": 36.9, "unit": "%"},
      {"measurement": "viability, T/C", "setting": "[11]", "result": 43.1, "unit": "%"},
      {"measurement": "viability, T/C", "setting": "[12]", "result": 37.1, "unit": "%"},
      {"measurement": "viability, T/C", "setting": "[13]", "result": 49.4, "unit": "%"},
      {"measurement": "viability, T/C", "setting": "[14]", "result": 48.3, "unit": "%"},
      {"measurement": "viability, T/C", "setting": "[15]", "result": 40.4, "unit": "%"},
      {"measurement": "viability, T/C", "setting": "[16]", "result": 35.2, "unit": "%"},
      {"measurement": "viability, T/C", "setting": "[17]", "result": 37.1, "unit": "%"},
      {"measurement": "viability, T/C", "setting": "[18]", "result": 33.6, "unit": "%"},
      {"measurement": "viability, T/C", "setting": "[19]", "result": 45, "unit": "%"},
      {"measurement": "viability, T/C", "setting": "[20]", "result": 39.4, "unit": "%"},
      {"measurement": "viability, T/C", "setting": "[21]", "result": 33.8, "unit": "%"},
      {"measurement": "viability, T/C", "setting": "[22]", "result": 34.4, "unit": "%"},
      {"measurement": "viability, T/C", "setting": "[23]", "result": 29.6, "unit": "%"},
      {"measurement": "viability, T/C", "setting": "[24]", "result": 27.3, "unit": "%"},
      {"measurement": "viability, T/C", "setting": "[25]", "result": 44.7, "unit": "%"},
      {"measurement": "viability, T/C", "setting": "[26]", "result": 43, "unit": "%"},
      {"measurement": "viability, T/C", "setting": "[27]", "result": 34, "unit": "%"},
      {"measurement": "viability, T/C", "setting": "[28]", "result": 32, "unit": "%"},
      {"measurement": "viability, T/C", "setting": "[29]", "result": 29.4, "unit": "%"},
      {"measurement": "viability, T/C", "setting": "[30]", "result": 35.5, "unit": "%"},
      {"measurement": "viability, T/C", "setting": "[31]", "result": 39.2, "unit": "%"},
      {"measurement": "viability, T/C", "setting": "[32]", "result": 41.5, "unit": "%"},
      {"measurement": "viability, T/C", "setting": "[33]", "result": 36.9, "unit": "%"},
      {"measurement": "viability, T/C", "setting": "[34]", "result": 34.9, "unit": "%"},
      {"measurement": "viability, T/C", "setting": "[35]", "result": 30.9, "unit": "%"},
      {"measurement": "viability, T/C", "setting": "[36]", "result": 28.3, "unit": "%"}
    ]},
    {"smiles": "O=C(c1ccc(F)c(F)c1Nc1ccc(I)cc1F)N1CC(O)([C@@H]2CCCCN2)C1", "note": "+ C=CC(=O)N1CCN(c2nc(OCC3CCCN3C)nc3c(F)c(-c4nc(N)cc(C)c4C(F)(F)F)c(Cl)cc23)C(C)C1", "values": [
      {"measurement": "IC50", "setting": "second compound 0.00316 µM", "result": 43.5, "unit": "nM"},
      {"measurement": "IC50", "setting": "second compound 0.01 µM", "result": 4.49, "unit": "nM"},
      {"measurement": "IC50", "setting": "second compound 0.0316 µM", "result": "< 3.16", "unit": "nM"},
      {"measurement": "IC50", "setting": "second compound 0.1 µM", "result": "< 3.16", "unit": "nM"},
      {"measurement": "IC50", "setting": "second compound 0.316 µM", "result": "< 3.16", "unit": "nM"},
      {"measurement": "IC50", "setting": "second compound 1 µM", "result": "< 3.16", "unit": "nM"},
      {"measurement": "viability, T/C", "setting": "[1]", "result": 58.7, "unit": "%"},
      {"measurement": "viability, T/C", "setting": "[2]", "result": 61, "unit": "%"},
      {"measurement": "viability, T/C", "setting": "[3]", "result": 52.9, "unit": "%"},
      {"measurement": "viability, T/C", "setting": "[4]", "result": 40.7, "unit": "%"},
      {"measurement": "viability, T/C", "setting": "[5]", "result": 29.3, "unit": "%"},
      {"measurement": "viability, T/C", "setting": "[6]", "result": 16.8, "unit": "%"},
      {"measurement": "viability, T/C", "setting": "[7]", "result": 50.9, "unit": "%"},
      {"measurement": "viability, T/C", "setting": "[8]", "result": 50.1, "unit": "%"},
      {"measurement": "viability, T/C", "setting": "[9]", "result": 41.1, "unit": "%"},
      {"measurement": "viability, T/C", "setting": "[10]", "result": 40, "unit": "%"},
      {"measurement": "viability, T/C", "setting": "[11]", "result": 28.6, "unit": "%"},
      {"measurement": "viability, T/C", "setting": "[12]", "result": 14.9, "unit": "%"},
      {"measurement": "viability, T/C", "setting": "[13]", "result": 44.7, "unit": "%"},
      {"measurement": "viability, T/C", "setting": "[14]", "result": 48.9, "unit": "%"},
      {"measurement": "viability, T/C", "setting": "[15]", "result": 37.2, "unit": "%"},
      {"measurement": "viability, T/C", "setting": "[16]", "result": 32.4, "unit": "%"},
      {"measurement": "viability, T/C", "setting": "[17]", "result": 24, "unit": "%"},
      {"measurement": "viability, T/C", "setting": "[18]", "result": 11.8, "unit": "%"},
      {"measurement": "viability, T/C", "setting": "[19]", "result": 37.1, "unit": "%"},
      {"measurement": "viability, T/C", "setting": "[20]", "result": 40.2, "unit": "%"},
      {"measurement": "viability, T/C", "setting": "[21]", "result": 33.3, "unit": "%"},
      {"measurement": "viability, T/C", "setting": "[22]", "result": 28.9, "unit": "%"},
      {"measurement": "viability, T/C", "setting": "[23]", "result": 24, "unit": "%"},
      {"measurement": "viability, T/C", "setting": "[24]", "result": 13.4, "unit": "%"},
      {"measurement": "viability, T/C", "setting": "[25]", "result": 40, "unit": "%"},
      {"measurement": "viability, T/C", "setting": "[26]", "result": 37.5, "unit": "%"},
      {"measurement": "viability, T/C", "setting": "[27]", "result": 30.6, "unit": "%"},
      {"measurement": "viability, T/C", "setting": "[28]", "result": 28, "unit": "%"},
      {"measurement": "viability, T/C", "setting": "[29]", "result": 21.2, "unit": "%"},
      {"measurement": "viability, T/C", "setting": "[30]", "result": 13.7, "unit": "%"},
      {"measurement": "viability, T/C", "setting": "[31]", "result": 39, "unit": "%"},
      {"measurement": "viability, T/C", "setting": "[32]", "result": 38.4, "unit": "%"},
      {"measurement": "viability, T/C", "setting": "[33]", "result": 31.4, "unit": "%"},
      {"measurement": "viability, T/C", "setting": "[34]", "result": 32.7, "unit": "%"},
      {"measurement": "viability, T/C", "setting": "[35]", "result": 24.2, "unit": "%"},
      {"measurement": "viability, T/C", "setting": "[36]", "result": 12.6, "unit": "%"}
    ]}
  ]
}
